Test results taken from patent US7138530B2, “Thiophene amidines, compositions thereof, and methods of treating complement-mediated diseases and conditions” (3-Dimensional Pharmaceuticals, Inc., priority 2002, dated 2006).

target: T1, activated human C1s (Homo sapiens, UniProt P09871); assay: In vitro inhibition of C1s: Ki determination, C1s-catalyzed hydrolysis of Z-Gly-Arg-S-Bzl detected with DTNB; assay type: biochemical; conditions: purified activated human C1s 2.3 nM, Z-Gly-Arg-S-Bzl 45 μM, DTNB 200 μM, pH 7.5, 37° C., absorbance at 405 nm
T1 construct: purchased Calbiochem (La Jolla, Calif.)
T1 sequence (P09871 438-688 limits assumed): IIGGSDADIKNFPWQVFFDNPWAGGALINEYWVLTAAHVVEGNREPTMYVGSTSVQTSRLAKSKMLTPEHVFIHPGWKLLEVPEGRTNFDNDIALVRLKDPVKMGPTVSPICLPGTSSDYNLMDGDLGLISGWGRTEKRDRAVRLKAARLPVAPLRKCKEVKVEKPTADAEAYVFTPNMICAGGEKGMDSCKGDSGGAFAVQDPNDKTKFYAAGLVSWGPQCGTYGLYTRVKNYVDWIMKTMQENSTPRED
T1 sequence (P09871 16-437 partner limits assumed): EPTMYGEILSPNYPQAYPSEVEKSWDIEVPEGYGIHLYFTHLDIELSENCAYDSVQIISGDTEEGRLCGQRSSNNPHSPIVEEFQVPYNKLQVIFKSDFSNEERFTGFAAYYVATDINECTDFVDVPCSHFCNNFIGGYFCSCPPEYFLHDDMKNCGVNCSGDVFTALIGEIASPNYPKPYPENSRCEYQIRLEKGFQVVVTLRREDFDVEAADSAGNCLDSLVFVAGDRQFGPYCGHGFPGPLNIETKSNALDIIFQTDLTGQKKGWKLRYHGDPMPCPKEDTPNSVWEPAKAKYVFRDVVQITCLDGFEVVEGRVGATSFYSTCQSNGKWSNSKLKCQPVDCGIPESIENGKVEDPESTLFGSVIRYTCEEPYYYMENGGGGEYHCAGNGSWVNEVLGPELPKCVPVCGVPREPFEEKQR
Method: Reagents: All buffer salts were obtained from Sigma Chemical Company (St. Louis, Mo.), and were of the highest purity available. DTNB was purchased from Pierce (Rockford, Ill.). Z-Gly-Arg-S-Bzl was purchased from Enzyme Systems Products (Livermore, Calif.). Activated human C1s was purchased from Calbiochem (La Jolla, Calif.).
Test compounds are prepared as a 10 μM solution in DMSO. Dilutions are prepared in DMSO yielding 7 final concentrations encompassing a 700-fold concentration range.
Reactions were initiated by the addition of a 10 μL aliquot of the enzyme, and the absorbance increase at 405 nm is continuously recorded for 15 minutes in a Molecular Devices plate reader. Final DMSO concentration was 4.3%. […] The ratio of the velocity (rate of change in absorbance as a function of time) for a sample containing no test compound is divided by the velocity of a sample containing test compound, and is plotted as a function of test compound concentration. The data are fit to a linear regression, and the value of the slope of the line calculated. The inverse of the slope is the experimentally determined Ki value.

Ki | Compound
0.006 to 0.023 µM | CSc1sc(C(=N)NC(=O)OC(C)(C)C)cc1S(=O)(=O)c1cccc(-c2ccc(S(C)(=O)=O)cc2)c1 [Example 57, {Imino-[4-(4′-methanesulfonyl-biphenyl-3-sulfonyl)-5-methylsulfanyl-thiophen-2-yl]-methyl}-carbamic acid tert-butyl ester]
0.006 to 0.023 µM | CSc1sc(C(=N)N)cc1S(=O)(=O)c1cccc(-c2ccsc2)c1 [Example 77, 5-Methylsulfanyl-4-(3-thiophen-3-yl-benzenesulfonyl)-thiophene-2-carboxamidine]
0.006 to 0.023 µM | CSc1sc(C(=N)N)cc1S(=O)(=O)c1cccc(-c2c(C)cc(NC(=N)N)cc2NC(=O)NCCCCCC(=O)O)c1 [Example 259]
